Laboratory results published in ChEMBL document CHEMBL5226289, “Discovery of natural anti-inflammatory alkaloids: Potential leads for the drug discovery for the treatment of inflammation” (Eur J Med Chem, 2021).
Blank lines part the entries; values can stand above or below the compound they belong to.

Columns and labels:
[1] = tested on: RAW264.7; assay: Inhibition of NO production in LPS-stimulated mouse RAW264.7 cells preincubated with compound for 30 mins followed by LPS stimulation and measured after 24 hrs by Griess reagent-based assay; format: functional, cell-based
[2] = target: T1, Acid-sensing ion channel 1 (Rattus norvegicus) (UniProt P55926); assay: Inhibition of rat ASIC1a ion channel expressed in Xenopus laevis oocytes in pH 6.9 buffer at -50 mV holding potential by voltage clamp electrophysiology recording; format: cell-based
T1 sequence (whole entry): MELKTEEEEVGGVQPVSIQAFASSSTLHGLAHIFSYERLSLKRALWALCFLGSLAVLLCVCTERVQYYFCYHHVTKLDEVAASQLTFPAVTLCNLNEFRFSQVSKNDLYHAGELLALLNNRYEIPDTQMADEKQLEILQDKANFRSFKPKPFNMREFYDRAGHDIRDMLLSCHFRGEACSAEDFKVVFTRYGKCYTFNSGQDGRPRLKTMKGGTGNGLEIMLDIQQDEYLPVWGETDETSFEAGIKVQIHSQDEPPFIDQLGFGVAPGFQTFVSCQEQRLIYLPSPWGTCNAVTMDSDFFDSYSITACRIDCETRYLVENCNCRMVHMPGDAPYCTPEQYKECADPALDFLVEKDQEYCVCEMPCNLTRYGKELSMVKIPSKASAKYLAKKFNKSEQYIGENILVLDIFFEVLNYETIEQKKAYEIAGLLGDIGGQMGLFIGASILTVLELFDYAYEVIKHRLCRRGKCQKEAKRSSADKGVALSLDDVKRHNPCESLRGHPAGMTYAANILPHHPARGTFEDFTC

[3] = target: T1, Acid-sensing ion channel 1 (Rattus norvegicus); assay: Inhibition of rat ASIC1a ion channel expressed in Xenopus laevis oocytes in pH 6.7 buffer at -50 mV holding potential by voltage clamp electrophysiology recording; format: cell-based
[4] = target: T1, Acid-sensing ion channel 1 (Rattus norvegicus); assay: Inhibition of rat ASIC1a ion channel expressed in Xenopus laevis oocytes in pH 6.5 buffer at -50 mV holding potential by voltage clamp electrophysiology recording; format: cell-based
[5] = Inhibition of NO production in LPS-stimulated mouse BV-2 cells preincubated with compound for 1 hrs followed by LPS stimulation and measured after 24 hrs by Griess reagent-based assay; format: functional, cell-based
[6] = Inhibition of LPS-induced NO production in mouse BV-2 cells […]; format: functional, cell-based
[7] = target: Prostaglandin G/H synthase 1 (Homo sapiens, UniProt P23219); assay: Inhibition of COX-1 (unknown origin) by colorimetric analysis
Chain of Prostaglandin G/H synthase 1 (P23219 whole entry): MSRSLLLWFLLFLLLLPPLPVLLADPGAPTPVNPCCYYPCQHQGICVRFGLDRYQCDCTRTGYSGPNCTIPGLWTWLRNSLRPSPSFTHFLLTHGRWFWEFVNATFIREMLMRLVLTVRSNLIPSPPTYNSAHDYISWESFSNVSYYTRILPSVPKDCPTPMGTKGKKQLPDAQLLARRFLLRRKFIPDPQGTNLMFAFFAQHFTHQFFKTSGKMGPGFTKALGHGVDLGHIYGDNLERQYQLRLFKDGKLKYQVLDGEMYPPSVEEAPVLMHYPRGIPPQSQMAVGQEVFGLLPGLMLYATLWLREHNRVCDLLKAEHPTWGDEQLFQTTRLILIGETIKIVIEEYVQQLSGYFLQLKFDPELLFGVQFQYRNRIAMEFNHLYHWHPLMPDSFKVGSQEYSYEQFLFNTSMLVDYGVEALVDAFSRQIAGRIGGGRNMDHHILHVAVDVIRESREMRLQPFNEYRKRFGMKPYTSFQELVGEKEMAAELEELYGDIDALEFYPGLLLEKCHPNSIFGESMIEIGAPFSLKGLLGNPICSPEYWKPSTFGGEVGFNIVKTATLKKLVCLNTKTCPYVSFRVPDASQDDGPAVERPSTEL

[8] = target: T2, Prostaglandin G/H synthase 2 (Homo sapiens, UniProt P35354); assay: Inhibition of COX-2 (unknown origin) by colorimetric analysis
T2 sequence (P35354 whole entry): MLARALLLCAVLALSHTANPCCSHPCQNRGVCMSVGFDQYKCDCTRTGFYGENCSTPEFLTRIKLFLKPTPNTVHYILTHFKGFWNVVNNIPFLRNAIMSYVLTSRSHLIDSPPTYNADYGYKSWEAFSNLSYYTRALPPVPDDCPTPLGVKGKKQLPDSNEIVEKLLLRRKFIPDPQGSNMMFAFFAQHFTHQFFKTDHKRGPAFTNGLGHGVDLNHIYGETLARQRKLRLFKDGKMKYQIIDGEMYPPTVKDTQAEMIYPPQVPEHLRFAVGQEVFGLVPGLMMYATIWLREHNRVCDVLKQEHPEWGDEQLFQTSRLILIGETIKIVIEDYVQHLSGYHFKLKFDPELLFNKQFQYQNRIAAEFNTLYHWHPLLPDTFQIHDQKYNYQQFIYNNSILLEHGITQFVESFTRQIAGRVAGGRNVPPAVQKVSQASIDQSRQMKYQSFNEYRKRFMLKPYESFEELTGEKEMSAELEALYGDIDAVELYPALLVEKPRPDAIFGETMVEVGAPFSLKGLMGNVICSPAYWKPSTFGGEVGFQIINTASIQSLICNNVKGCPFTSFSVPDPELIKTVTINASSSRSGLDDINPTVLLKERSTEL

[9] = tested on: RAW264.7; assay: Inhibition of NO production in LPS-stimulated mouse RAW264.7 cells preincubated with compound for 24 hrs followed by LPS stimulation and measured after 2 hrs by Griess reagent-based assay; format: functional, cell-based
[10] = tested on: RAW264.7; assay: Antiinflammatory activity in mouse RAW264.7 cells assessed as inhibition of LPS-stimulated iNOS activity preincubated with compound for 24 hrs followed by LPS stimulation for 2 hrs and measured 2 hrs after NADPH addition by fluorescence based assay; format: functional, cell-based
[11] = tested on: HT-1080; assay: Antiinflammatory activity in human HT-1080 cells assessed as inhibition of TNF-alpha production; format: functional
[12] = tested on: HT-1080; assay: Antiinflammatory activity in human HT-1080 cells assessed as inhibition of IL-6 production; format: functional
[13] = tested on: RAW264.7; assay: Inhibition of NO production in LPS-stimulated mouse RAW264.7 cells preincubated with compound for 4 hrs followed by LPS stimulation and measured after 24 hrs by Griess reagent-based assay; format: functional, cell-based
[14] = tested on: Mus musculus; assay: Antiinflammatory activity in Swiss mouse assessed as reduction in croton oil-induced ear edema administered via surface of left ear measured after 6 hrs relative to control; format: functional; parameters: scale not given: the % may be the effect or the level left; conditions: route au
[15] = tested on: Mus musculus; assay: Antiinflammatory activity in croton oil-induced Swiss mouse model of ear edema assessed as reduction in MPO activity administered via surface of left ear measured after 6 hrs relative to control; format: functional; parameters: scale not given: the % may be the effect or the level left; conditions: route au
[16] = tested on: Mus musculus; assay: Antiinflammatory activity in mouse assessed as inhibition of xylene-induced ear edema at 10 mg/kg, IG pre-treated for 30 mins followed by xylene administration and measured after 1 hrs relative to control; format: functional; conditions: po, time 1.5 hrs
[17] = target: T3, Polyunsaturated fatty acid 5-lipoxygenase (Homo sapiens) (UniProt P09917); assay: Inhibition of 5-LOX (unknown origin) at 100 uM measured after 5 mins by colorimetric method relative to control
T3 sequence (whole entry): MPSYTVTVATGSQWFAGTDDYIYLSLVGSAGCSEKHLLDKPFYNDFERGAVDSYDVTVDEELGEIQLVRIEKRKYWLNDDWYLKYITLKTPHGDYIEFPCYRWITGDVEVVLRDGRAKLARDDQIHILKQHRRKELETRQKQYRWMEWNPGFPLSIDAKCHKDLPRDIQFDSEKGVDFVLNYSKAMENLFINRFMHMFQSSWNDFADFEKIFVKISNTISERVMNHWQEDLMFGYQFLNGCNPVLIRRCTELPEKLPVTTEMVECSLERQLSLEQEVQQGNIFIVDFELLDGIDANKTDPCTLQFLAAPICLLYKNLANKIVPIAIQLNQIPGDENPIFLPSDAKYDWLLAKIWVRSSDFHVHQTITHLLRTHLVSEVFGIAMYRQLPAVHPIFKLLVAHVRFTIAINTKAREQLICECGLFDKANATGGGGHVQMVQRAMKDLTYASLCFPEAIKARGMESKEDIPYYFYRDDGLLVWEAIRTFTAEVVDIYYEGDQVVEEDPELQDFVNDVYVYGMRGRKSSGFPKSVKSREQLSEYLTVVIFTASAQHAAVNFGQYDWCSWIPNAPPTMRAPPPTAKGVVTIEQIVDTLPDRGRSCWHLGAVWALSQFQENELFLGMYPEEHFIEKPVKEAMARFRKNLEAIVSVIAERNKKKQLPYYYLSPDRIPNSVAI

[18] = tested on: Mus musculus; assay: Antiinflammatory activity in mouse assessed as inhibition of xylene-induced ear edema at 8 mg/kg, ip pre-treated for 30 mins followed by xylene administration and measured after 1 hrs relative to control; format: functional; conditions: time 1.5 hrs
[19] = tested on: Mus musculus; assay: Antiinflammatory activity in Swiss Webster albino mouse assessed as inhibition of carrageenan-induced paw edema at 75 mg/kg, ip preadministered for 1 hrs followed by carrageenan induction and measured after 3 hrs by plethysmometer relative to control; format: functional; conditions: time 4 hrs
[20] = tested on: Mus musculus; assay: Analgesic activity in Swiss Webster albino mouse assessed as inhibition of acetic acid-induced writhing at 125 mg/kg, po pre-treated for 30 mins followed by acetic acid induction and measured for 15 mins relative to control; format: functional; conditions: 0.75 h, time 45 min
[21] = tested on: THP-1; assay: Antiinflammatory activity in human THP-1 cells assessed as inhibition of TNF-alpha production; format: functional
[22] = tested on: THP-1; assay: Antiinflammatory activity in human THP-1 cells assessed as inhibition of IL-6 production; format: functional

SMILES: COc1c(O)ccc2c1cnc1c3cc4c(cc3ccc21)OCO4 [DECARINE]
IC50 [1]: 48.4 µM

SMILES: COc1cc2c(cc1O)C(Cc1ccc(O)c(Oc3ccc(C[C@@H]4NCCc5cc(OC)c(O)cc54)cc3)c1)NCC2 (stereo not given in full)
inhibition [2]: 98.1%
inhibition [3]: 93.7%
inhibition [4]: 69.3%

SMILES: C=CC(C)(C)c1[nH]c2cc3c(cc2c1/C=C1\NC(=O)[C@@H]2CCCN2C1=O)C=CC(C)(C)O3
IC50 [9]: 11.2 µM
IC50 [10]: 5.4 µM

SMILES: Cc1cc(=O)c2c(O)c([C@H]3CCN(C)C[C@H]3O)c(O)cc2o1
inhibition (INH) [11]: 47%
inhibition (INH) [12]: 83%

SMILES: COc1cc(/C=C/CO)ccc1O[C@H]1CCCNC1=O
IC50 [13]: 18.1 µM

SMILES: CN1C[C@H](O)C[C@H]1C(=O)O
Activity [14]: 26.8%
Activity [15]: 59.7%

SMILES: O=C1Oc2c(c3c(O)cc(O)cc3n2-c2ccc(O)cc2)C(=O)Oc2c1c1c(O)cc(O)cc1n2-c1ccc(O)cc1
inhibition in vivo at 75 mg/kg [19]: 57.1%
inhibition in vivo at 125 mg/kg [20]: 49.4%

SMILES: CC(=O)O[C@H]1CN(C)CC[C@H]1c1c(O)cc(O)c2c(=O)cc(C)oc12
inhibition (INH) [21]: 81.1%
inhibition (INH) [22]: 20.5%

More lines, main results first:

IC50 [5]: 0.5 µM
SMILES: COc1cc(/C=C/C(=O)CC(=O)/C=C/c2ccc(O)c(OC)c2)ccc1O [CURCUMIN]
IC50 [6]: 0.5 µM

IC50 [7]: 4.9 µM
IC50 [8]: 1.4 µM
SMILES: CC(C)CC(=O)NC[C@H]1CC[C@H](NC(=O)c2nc3ccccc3cc2O)[C@H](O)O1

IC50 [7]: 7.6 µM
IC50 [8]: 2.1 µM
SMILES: CC(C)CC(=O)NC[C@H](O)CC[C@@H](CO)NC(=O)c1nc2ccccc2cc1O

inhibition [17]: 79.2%
SMILES: C/C=C1/CN2[C@@H]3C[C@@]45c6ccccc6N[C@]4(O3)[C@@H]2C[C@@H]1[C@@H]5OC(C)=O
inhibition in vivo at 10 mg/kg [16]: 41.9%

inhibition [17]: 60.8%
SMILES: C/C=C1/CN2CC[C@@H]1[C@@](CO)(C(=O)OC)c1[nH]c3ccccc3c1C2
inhibition in vivo at 8 mg/kg [18]: 40.3%
